Test: RP, Waters ACQUITY Premier BEH C18, 100 × 2.1 mm, 1.7 µm, 40 °C, 0.3 to 0.4 mL/min, estimated dead time 0.73 min; A: water + 0.1% formic acid; B: acetonitrile + 0.1% formic acid; gradient (min/%B) 0/0.5 0.1/0.5 10/80 10.1/99.5 12/0.5 12.1/0.5 14.5/0.5
Settings: stereoisomer not certain

`NCCc1c[nH]c2ccccc12` [TRYPTAMINE] and `O=C(O)CCCc1c[nH]c2ccccc12` [3-INDOLEBUTYRIC ACID] are within 1.5-fold of each other in LC retention time: 4.34 min for the first, 6.25 min for the second.

First: CCCCCCCCCC(=O)OC(CC(=O)[O-])C[N+](C)(C)C (stereo not drawn) [DECANOYLCARNITINE]
Second: CC(C)CC(=O)OC(CC(=O)[O-])C[N+](C)(C)C (stereo not drawn) [ISOVALERYLCARNITINE]
The LC retention time of the first is 1.6-fold higher: 6.92 min for the first, 4.39 min for the second.

First: O=C(O)CCCCC(=O)O [ADIPATE]
Second: O=C(O)CCC(=O)O [SUCCINATE]
The LC retention time of the first is 2.3-fold higher: 3.99 min for the first, 1.76 min for the second.

`COc1cc(C=CC(=O)O)ccc1O` [FERULATE] and `COc1cc(C=CC(=O)O)cc(OC)c1O` [SINAPIC ACID] are within 1.5-fold of each other in LC retention time: 5.17 min for the first, 4.58 min for the second.

`O=C(O)c1ccccc1C(=O)O` [PHTHALIC ACID] and `O=C(O)C(=O)c1ccccc1` [PHENYLGLYOXYLIC ACID] are within 1.5-fold of each other in LC retention time: 4.52 min for the first, 5.53 min for the second.

Going from `COC(=O)c1ccc(O)cc1` [METHYLPARABEN] to `NCCc1ccc(O)cc1` [TYRAMINE], the LC retention time falls from 5.79 min to 2.81 min (2.1-fold).

Going from `CC(=O)NCC(=O)O` [N-ACETYLGLYCINE] to `CC(=O)NCCCC(=O)O` [4-ACETAMIDOBUTANOATE], the LC retention time rises from 1.26 min to 3.27 min (2.6-fold).

`O=c1cc(-c2ccc(O)c(-c3c(O)cc(O)c4c(=O)cc(-c5ccc(O)cc5)oc34)c2)oc2cc(O)cc(O)c12` [AMENTOFLAVONE] and `O=c1cc(-c2ccc(O)c(O)c2)oc2cc(OC3OC(CO)C(O)C(O)C3O)cc(O)c12` (stereo not drawn) [LUTEOLIN-7-GLUCOSIDE] are within 1.5-fold of each other in LC retention time: 6.35 min for the first, 4.44 min for the second.

`COc1cc(C=CC(=O)O)cc(OC)c1OC` [3,4,5-TRIMETHOXYCINNAMIC ACID] and `COc1ccc(CC(=O)O)cc1OC` [HOMOVERATRIC ACID] are within 1.5-fold of each other in LC retention time: 5.7 min for the first, 5.34 min for the second.

`Nc1cc(C(=O)O)ccc1O` [3-AMINO-4-HYDROXYBENZOATE] and `N[C@@H](Cc1ccc(O)c(O)c1)C(=O)O` [L-DOPA] are within 1.5-fold of each other in LC retention time: 1.37 min for the first, 1.7 min for the second.

Compared with `O=C(O)c1ccnc2ccccc12` [4-QUINOLINECARBOXYLATE], `O=C(O)c1ccc2ccccc2c1O` [1-HYDROXY-2-NAPHTHOATE] is 2.4-fold higher in LC retention time: 3.01 min for the first, 7.32 min for the second.

Compared with `Cn1c(=O)[nH]c(=O)c2c1[nH]c(=O)n2C` [3,7-DIMETHYLURIC ACID], `Cn1c(=O)[nH]c2[nH]c(=O)n(C)c2c1=O` [1,7-DIMETHYLURIC ACID] is 1.9-fold higher in LC retention time: 1.28 min for the first, 2.39 min for the second.

`CC1OC(OC2C(O)C(OCCc3ccc(O)c(O)c3)OC(CO)C2OC(=O)C=Cc2ccc(O)c(O)c2)C(O)C(O)C1O` (stereo not drawn) [ACTEOSIDE] and `CC=C1C(OC2OC(CO)C(O)C(O)C2O)OC=C(C(=O)OC)C1CC(=O)OCCc1ccc(O)c(O)c1` (stereo not drawn) [OLEUROPEIN] are within 1.5-fold of each other in LC retention time: 4.38 min for the first, 5.05 min for the second.

`O=C(O)c1ccc(CO)o1` [SUMIKI'S ACID] and `O=C(O)Cc1cccc(O)c1` [3-HYDROXYPHENYLACETATE] are within 1.5-fold of each other in LC retention time: 3.65 min for the first, 3.54 min for the second.

Going from `CSCCC(O)C(=O)O` (stereo not drawn) [2-HYDROXY-4-(METHYLTHIO)BUTANOATE] to `CSCCC(N)C(=O)O` (stereo not drawn) [ISTD_METHIONINE-METHYL-D3], the LC retention time falls from 4.06 min to 1.46 min (2.8-fold).

`O=c1c(-c2ccc(O)cc2)coc2c(C3OC(CO)C(O)C(O)C3O)c(O)ccc12` (stereo not drawn) [PUERARIN] and `OCC1OC(Oc2c[nH]c3ccccc23)C(O)C(O)C1O` (stereo not drawn) are within 1.5-fold of each other in LC retention time: 3.76 min for the first, 4.43 min for the second.

First: CSCCC(NC(C)=O)C(=O)O (stereo not drawn) [N-ACETYLMETHIONINE]
Second: CC(=O)NC(C)C(=O)O (stereo not drawn) [N-ACETYLALANINE]
The LC retention time of the first is 1.8-fold higher: 4.21 min for the first, 2.4 min for the second.

Going from `Nc1ncnc2c1ncn2C1CC(O)C(CO)O1` (stereo not drawn) [DEOXYADENOSINE] to `Nc1ncnc2c1ncn2C1OC(COP(=O)(O)O)C(O)C1O` (stereo not drawn) [ADENOSINE-MONOPHOSPHATE], the LC retention time falls from 3.33 min to 1.35 min (2.5-fold).

Compared with `Cc1cc2c(C(C)C)c(O)c(O)c(C=O)c2c(O)c1-c1c(C)cc2c(C(C)C)c(O)c(O)c(C=O)c2c1O` [(-)-GOSSYPOL], `CC1OC(Oc2c(-c3cc(O)c(O)c(O)c3)oc3cc(O)cc(O)c3c2=O)C(O)C(O)C1O` (stereo not drawn) [MYRICITRIN] is 1.9-fold lower in LC retention time: 8.49 min for the first, 4.4 min for the second.

`O=C(O)C1CCCCC1` [CYCLOHEXANECARBOXYLIC ACID] and `O=C1CCCCO1` [5-VALEROLACTONE] are within 1.5-fold of each other in LC retention time: 5.27 min for the first, 4.9 min for the second.

`CCCCCCCCCCCCC(O)C(=O)O` (stereo not drawn) [2-HYDROXYMYRISTIC ACID] and `CCCCCCC(O)CCCCCCCCCCC(=O)O` (stereo not drawn) [12-HYDROXYSTEARIC ACID] are within 1.5-fold of each other in LC retention time: 8.3 min for the first, 8.29 min for the second.

Compared with `CCC(NC(=O)CCC(N)C(=O)O)C(=O)NCC(=O)O` (stereo not drawn) [OPHTHALMATE], `NC(CCC(=O)NC(Cc1ccccc1)C(=O)O)C(=O)O` (stereo not drawn) [GAMMA-GLUTAMYLPHENYLALANINE] is 1.8-fold higher in LC retention time: 2.03 min for the first, 3.65 min for the second.

`Nc1nc2c(ncn2C2CC(O)C(COP(=O)(O)O)O2)c(=O)[nH]1` (stereo not drawn) [DEOXYGUANOSINE-MONOPHOSPHATE] and `Nc1ccn(C2CC(O)C(COP(=O)(O)O)O2)c(=O)n1` (stereo not drawn) [DEOXYCYTIDINE MONOPHOSPHATE] are within 1.5-fold of each other in LC retention time: 1.47 min for the first, 1.37 min for the second.

`Cc1cn(C2OC(CO)C(O)C2O)c(=O)nc1N` (stereo not drawn) [5-METHYLCYTIDINE] and `O=c1ccn(C2OC(CO)C(O)C2O)c(=O)[nH]1` (stereo not drawn) [URIDINE] are within 1.5-fold of each other in LC retention time: 2.36 min for the first, 2.45 min for the second.

`CC1(C)OC2CC(=O)OCC23C1CC(=O)C1(C)C3CCC2(C)C(c3ccoc3)OC(=O)C3OC321` (stereo not drawn) [LIMONIN] and `CC(=O)OC1CC(=O)OC(C)(C)C2CC(=O)C3(C)C(CCC4(C)C(c5ccoc5)OC(=O)C5OC543)C12C` (stereo not drawn) [NOMILIN] are within 1.5-fold of each other in LC retention time: 6.87 min for the first, 7.05 min for the second.

`O=C(O)C=Cc1c[nH]c2ccccc12` [INDOLEACRYLIC ACID] and `CC(=O)NC(Cc1c[nH]c2ccccc12)C(=O)O` (stereo not drawn) [N-ACETYLTRYPTOPHAN] are within 1.5-fold of each other in LC retention time: 5.61 min for the first, 5.31 min for the second.

First: NC(=O)c1ccc[n+](C2OC(COP(=O)(O)OP(=O)(O)OCC3OC(n4cnc5c(=O)[nH]cnc54)C(O)C3O)C(O)C2O)c1 (stereo not drawn) [NICOTINAMIDE HYPOXANTHINE DINUCLEOTIDE]
Second: NCCOP(=O)(O)OP(=O)(O)OCC1OC(n2ccc(N)nc2=O)C(O)C1O (stereo not drawn) [CDP-ETHANOLAMINE]
The LC retention time of the first is 2.3-fold higher: 2.02 min for the first, 0.882 min for the second.

Going from `Oc1cccc(O)c1O` [PYROGALLOL] to `COc1cc(CC(=O)O)ccc1O` [HOMOVANILLATE], the LC retention time rises from 2.89 min to 4.66 min (1.6-fold).

Going from `OCC1OC(OC2OC(CO)C(O)C(O)C2O)C(O)C(O)C1O` (stereo not drawn) [TREHALOSE] to `OCc1ccccc1OC1OC(CO)C(O)C(O)C1O` (stereo not drawn) [SALICIN], the LC retention time rises from 0.911 min to 2.95 min (3.2-fold).

Compared with `COC(=O)C1=CCCN(C)C1` [ARECOLINE], `COC(=O)CCC(=O)OC` [DIMETHYL SUCCINATE] is 3.9-fold higher in LC retention time: 1.02 min for the first, 3.97 min for the second.

Compared with `CCCCCCCCCCCCCC(=O)OCC(O)CO` (stereo not drawn) [GLYCEROL-MYRISTATE], `CCCCC(N)C(=O)O` (stereo not drawn) [NORLEUCINE] is 3.1-fold lower in LC retention time: 8.67 min for the first, 2.79 min for the second.

Compared with `Cn1c(=O)[nH]c2ncn(C)c2c1=O` [PARAXANTHINE], `Cn1c(=O)[nH]c2nc[nH]c2c1=O` [1-METHYLXANTHINE] is 2.8-fold lower in LC retention time: 3.95 min for the first, 1.42 min for the second.

`Cc1nccc2c1[nH]c1ccccc12` [HARMAN] and `C[N+](C)(C)C(Cc1c[nH]c2ccccc12)C(=O)[O-]` (stereo not drawn) [LENTICIN] are within 1.5-fold of each other in LC retention time: 4.24 min for the first, 3.64 min for the second.

`Cn1c(=O)[nH]c(=O)c2[nH]cnc21` [3-METHYLXANTHINE] and `CC1CNC(=O)NC1=O` (stereo not drawn) [DIHYDROTHYMINE] are within 1.5-fold of each other in LC retention time: 1.3 min for the first, 1.26 min for the second.

`CC(CCC(=O)NCCS(=O)(=O)O)C1CCC2C3C(O)CC4CC(O)CCC4(C)C3CC(O)C12C` (stereo not drawn) [TAUROCHOLIC ACID] and `CC(CCC(=O)O)C1CCC2C3C(O)CC4CC(O)CCC4(C)C3CC(O)C12C` (stereo not drawn) [CHOLATE] are within 1.5-fold of each other in LC retention time: 5.85 min for the first, 7.13 min for the second.

`Cc1cc2nc3c(=O)[nH]c(=O)nc-3n(CC(O)C(O)C(O)COP(=O)(O)OP(=O)(O)OCC3OC(n4cnc5c(N)ncnc54)C(O)C3O)c2cc1C` (stereo not drawn) [FAD] and `Cc1cc2nc3c(=O)[nH]c(=O)nc-3n(CC(O)C(O)C(O)COP(=O)(O)O)c2cc1C` (stereo not drawn) [FLAVIN MONONUCLEOTIDE] are within 1.5-fold of each other in LC retention time: 4.15 min for the first, 3.73 min for the second.

Compared with `CC(CCC(=O)O)C(=O)O` (stereo not drawn) [2-METHYLGLUTARATE], `CC(=O)OC(CC(=O)O)C[N+](C)(C)C` (stereo not drawn) [O-ACETYLCARNITINE] is 2.8-fold lower in LC retention time: 4.07 min for the first, 1.48 min for the second.

`CC1C(=O)OC2C(O)C34C5CC(C(C)(C)C)C36C(OC(=O)C6O)OC4(C(=O)O5)C12O` (stereo not drawn) [GINKGOLIDE B] and `CC(CCC(=O)O)C1CCC2C3C(=O)CC4CC(O)CCC4(C)C3CC(O)C12C` (stereo not drawn) [7-KETODEOXYCHOLATE] are within 1.5-fold of each other in LC retention time: 5.64 min for the first, 6.88 min for the second.

Compared with `O=CC(O)C(O)C(O)C(O)CO` (stereo not drawn) [ISTD_ D(+)-GLUCOSE-13C6], `CC(=O)C(C)O` (stereo not drawn) [ACETOIN] is 3.9-fold higher in LC retention time: 0.888 min for the first, 3.5 min for the second.

`COc1c2ccoc2cc2oc(=O)ccc12` [BERGAPTEN] and `N[C@@H](Cc1cc(I)c(Oc2ccc(O)cc2)c(I)c1)C(=O)O` [3,5-DIIODO-L-THYRONINE] are within 1.5-fold of each other in LC retention time: 6.74 min for the first, 5.64 min for the second.

Going from `CC(=O)NCCCCN` [N-ACETYLPUTRESCINE] to `COc1cc(CCC(=O)O)ccc1O` [DIHYDROFERULIC ACID], the LC retention time rises from 0.96 min to 5.08 min (5.3-fold).

`Cc1ncc(CO)c(C=O)c1O` [PYRIDOXAL] and `Nc1ncnc2c1ncn2C1OC(COP(=O)(O)OS(=O)(=O)O)C(O)C1O` (stereo not drawn) [ADENOSINE PHOSPHOSULFATE] are within 1.5-fold of each other in LC retention time: 0.923 min for the first, 1.22 min for the second.

Going from `Nc1ncnc2c1ncn2C1OC(CSCCC(N)C(=O)O)C(O)C1O` (stereo not drawn) [S-ADENOSYLHOMOCYSTEINE] to `NC(=O)c1ncn(C2OC(COP(=O)(O)O)C(O)C2O)c1N` (stereo not drawn) [AICAR], the LC retention time falls from 3.08 min to 1.28 min (2.4-fold).

`COc1ccc(C2CC(=O)c3c(O)cc(OC4OC(COC5OC(C)C(O)C(O)C5O)C(O)C(O)C4O)cc3O2)cc1O` (stereo not drawn) [HESPERIDINE] and `CC1(C(=O)O)CCC2(C)CCC3(C)C(=CC(=O)C4C5(C)CCC(OC6OC(C(=O)O)C(O)C(O)C6OC6OC(C(=O)O)C(O)C(O)C6O)C(C)(C)C5CCC43C)C2C1` (stereo not drawn) [GLYCYRRHIZIN] are within 1.5-fold of each other in LC retention time: 4.77 min for the first, 6.4 min for the second.

Reference: the RepoRT retention time repository
